Laboratory results: patent publication US12396961B2, “Compounds and compositions for intracellular delivery of agents” (ModernaTX, Inc., priority 2015, dated 2025)
Like-named read-outs stand apart in the source and are kept apart here.

Key:
[1] = tested on: luciferase (Luc) mRNA expression; assay: Luc expression (AUC) in CD-1 mice relative to MC3; format: in vivo; conditions: for Liver/Spleen Ratio / Lipid/MC3 AUC: Table 7c; for Lipid/MC3 AUC: AUC relative to MC3; for Lipid/MC3 Luc CD-1 (mice): Luc expression relative to MC3, CD-1 mice
Experimental: FIG. 15 is a graph summarizing luciferase expression levels at 6 h after administration of nanoparticle compositions containing compounds of the disclosure to CD-1 mice at a dose of 0.5 mpk. Total light flux values were acquired via body luminescent imaging (BLI) 6 h after administration. In this Figure, the numbers 1-7 and 10 refer to the compositions containing Compounds 4-10 and MC3 respectively.
In contrast, hEPO expression in rats induced by administration of nanoparticle composition including compound according to one of formulae (I), (Ia1)-(Ia6), (Ib), (II), (IIa), (III), and (IIIa) was substantially lower than that measured for MC3. […] Table 7c and 7d show additional protein expressions and clearance data from compositions with various compounds disclosed herein as compared to with MC3.

[2] = Lipid clearance: % dose remaining in mice (liver) 6 h and 24 h after administration of nanoparticle compositions; format: in vivo, CD-1 mice; conditions: Table 7c, species not given
hEPO mRNA expression [3] = assay: Expression of hEPO in mice (CD-1); format: in vivo, CD-1 mice; conditions: hEPO expression relative to MC3, CD-1 mice
Description: FIG. 12 is a set of graphs illustrating hEPO expression levels in CD-1 mice dosed with compounds of the disclosure, compared to MC3. PBS is used as control. […] In graphs A-C numbers 1-14 refer to compositions containing the following: 1: Compound 73, 2: Compound 80, 3: Compound 70; 4: Compound 81; 5: Compound 69; 6: Compound 82; 7: Compound 83; 8: Compound 62; 9: Compound 84; 10: Compound 85; 11: Compound 86; 12: Compound 87; 13: MC3; 14: PBS.
FIG. 13 is a graph showing hEPO levels (pg/mL) in CD-1 mice up to −25 h after administration of a nanoparticle composition containing compounds of the disclosure, compared to a composition containing MC3. Numbers 1-13 refer to compositions containing the following: 1: Compound 73, 2: Compound 80, 3: Compound 70; 4: Compound 81; 5: Compound 69; 6: Compound 82; 7: Compound 83; 8: Compound 62; 9: Compound 84; 10: Compound 85; 11: Compound 86; 12: Compound 87; 13: MC3. […]

hEPO mRNA expression [4] = assay: Expression of hEPO after intravenous administration to rats; format: in vivo; conditions: hEPO expression relative to MC3, S.D. rats, intravenous
Experimental: PBS (phosphate buffered saline) is used as control.
Formulations were prepared according to Table 5 and included mRNA encoding hEPO.
[…] After the 48 hour time point, livers and spleens were harvested and frozen.

[5] = Lipid levels (clearance) in liver and spleen 48 hours after administration; format: in vivo, rats; conditions: for concentration at 48 h: Sprague-Dawley, rat, intravenous
Experimental: Formulations were administered intravenously to rats (n=3 or 6) at a dosage of 0.2 mg/kg or 0.5 mg/kg (mpk) and hEPO levels measured at 3, 6, and 24 hour time points. After the 48 hour time point, livers and spleens were harvested and frozen.
The amount of lipid in the liver and spleen 48 hours after administration of a nanoparticle composition was also measured. […] In contrast, approximately 60% of doses including MC3 or Compound 22 remained in the liver after 48 hours. Less than 3% of the dose remained in the spleen for each composition tested.

[6] = Particle size and polydispersity index (Zetasizer Nano ZS); format: physicochemical; conditions: Table 1; DOPE 40:20:38.5:1.5, Luc mRNA
Method in brief: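 Particle size and polydispersity index were measured by dynamic light scattering on a Zetasizer Nano ZS in 1×PBS. Zeta potential was measured in 15 mM PBS.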

[7] = tested on: luciferase (Luc) mRNA expression; assay: Expression of Luc in different organs (liver, lung, spleen, femur) 6 hours after intravenous administration; format: in vivo; conditions: mice i.v. 0.5 mpk
Experimental: The efficacy of the nanoparticle compositions presented in Tables 1, la, 17-1, 19-1, 20-1 and 21-1 was further evaluated by measuring the expression of modified luciferase in the liver, lung, spleen, and femur upon administration of a given composition. Formulations were administered intravenously to mice (n=3) at a dosage of 0.5 mpk and bioluminescence measured after 6 hours. The standard MC3 formulation and a PBS control were also tested.

Row | % Dose Remaining 24 hr [2] | SMILES | Liver/Spleen Ratio [1] | Lipid/MC3 AUC [1] | other results
1 | 0.24% | CCCCCCCCCN(CCCCCCCC(=O)OC)CCC1CCN(C(=O)CN(CCCCCCCCC)CCN(CCCCCCCCC)CCCCCCCCC)CC1 [Compound 57, Methyl 8-((2-(1-(N-(2-(dinonylamino)ethyl)-N-nonylglycyl)piperidin-4-yl)ethyl)(nonyl)amino)octanoate] | 15 | 0.85 | % Dose Remaining 6 hr ([2]; 6 hr): 0.88%
2 |  | CCCCCCCCCCCCN(CCCCCCCCCCCC)CCN(CCCCCCCCCCCC)CCN1CCN(CCN(CCCCCCCCC)CCCCCCCCC)CC1 [23 (DOPE)] |  |  | Lipid/MC3 hEPO CD-1 (mice) (hEPO mRNA expression [3]): 2.4; Lipid/MC3 hEPO S.D. (rats) (hEPO mRNA expression [4]): 0.21; concentration at 48 h ([5]; liver, 48 hours after administration, read-out: Lipid in liver): 32900 ng/g; concentration at 48 h ([5]; spleen, 48 hours after administration, read-out: Lipid in spleen): 26100 ng/g; % remaining dose in liver ([5]; liver, 48 hours after administration): 51.4%; % remaining dose in spleen ([5]; spleen, 48 hours after administration): 2.72%
3 |  | CCCCCCCCCCCCCCN(CCCCCCCCCCCCCC)CCN1CCN(CCN(CCCCCCCCC)CCN(CCCCCCCCC)CCCCCCCCC)CC1 [Compound 20, N^1-(2-(4-(2-(Ditetradecylamino)ethyl)piperazin-1-yl)ethyl)-N^1,N^2,N^2-trinonylethane-1,2-diamine] |  |  | PDI [6]: 0.150; Total flux in organs, comparison in words over the organs of the table named [7]: highest total flux; Lipid/MC3 Luc CD-1 (mice) [1]: 5.0
4 | 0.61% | CCCCCCCCCN(CCCCCCC(=O)OCC)CCC1CCN(C(=O)CN(CCCCCCCCC)CCN(CCCCCCCCC)CCCCCCCCC)CC1 [Compound 58, Ethyl 7-((2-(1-(N-(2-(dinonylamino)ethyl)-N-nonylglycyl)piperidin-4-yl)ethyl)(nonyl)amino)heptanoate] | 11 | 0.97 | 
5 |  | CCCCCCCCCN(CCCCCCCCC)CCC1CCN(C(=O)CN(CCCCCCCCC)CCN(CCCCCCCCC)CCCCCCCCC)CC1 [Compound 49, 2-((2-(Dinonylamino)ethyl)(nonyl)amino)-1-(4-(2-(dinonylamino)ethyl)piperidin-1-yl)ethan-1-one] |  |  | PDI [6]: 0.200; Lipid/MC3 Luc CD-1 (mice) [1]: 5.23; % dose remaining Rat liver (48 h) [5]: 38.45%
6 | 0.77% | CCCCCCCCCN(CCCCCCCCC)CCN(CCCCCCCCC)CC(=O)N1CCN(C(=O)CN(CCCCCCCCC)CCCCCCC(=O)OCC)CC1 [Compound 53, Ethyl 7-((2-(4-(N-(2-(dinonylamino)ethyl)-N-nonylglycyl)piperazin-1-yl)-2-oxoethyl)(nonyl)amino)heptanoate] | 17 | 0.07 | 
7 | 0.13% | CCCCCCCCCN(CCCOC(=O)CCCCC)CCC1CCN(C(=O)CN(CCCCCCCCC)CCN(CCCCCCCCC)CCCCCCCCC)CC1 [Compound 61, 3-((2-(1-(N-(2-(Dinonylamino)ethyl)-N-nonylglycyl)piperidin-4-yl)ethyl)(nonyl)amino)propyl Hexanoate] | 30 | 3.27 | 
8 |  | CCCCCCCCCN(CCCCCCCCC)CCN(CCCCCCCCC)CC(=O)N1CCN(C(=O)CN(CCCCCCCCC)CCCC(=O)OCCCCC)CC1 [Compound 45, Pentyl 4-((2-(4-(N-(2-(dinonylamino)ethyl)-N-nonylglycyl)piperazin-1-yl)-2-oxoethyl)(nonyl)amino)butanoate] |  |  | PDI [6]: 0.200; Lipid/MC3 Luc CD-1 (mice) [1]: 6.50; % dose remaining Rat liver (48 h) [5]: 8.57%
9 | 6.40% | CCCCCCCCCN(CCCCCCCCC)CCN(CCCCCCCCC)CC(=O)N1CCN(C(=O)CN(CCCC(=O)OCCCCC)CCCC(=O)OCCCCC)CC1 [Compound 72, Dipentyl 4,4′-((2-(4-(N-(2-(dinonylamino)ethyl)-N-nonylglycyl)piperazin-1-yl)-2-oxoethyl)azanediyl)dibutyrate] | 6 | 0.46 | 
10 | 0.16% | CCCCCCCCCN(CCCCCCCCC)CCN(CCCCCCCCC)CC(=O)N1CCN(C(=O)CN(CCCCCCCCC)CCCOC(=O)CCCCC)CC1 [Compound 56, 3-((2-(4-(N-(2-(Dinonylamino)ethyl)-N-nonylglycyl)piperazin-1-yl)-2-oxoethyl)(nonyl)amino)propyl Hexanoate] | 29 | 1.25 | 
11 |  | CCCCC/C=C\C/C=C\CCCCCCCCC1(CCCCCCCC/C=C\C/C=C\CCCCC)CC(OC(=O)CCCN(C)C)C1 [Compound 21-2, 3,3-Di((9Z,12Z)-octadeca-9,12-dien-1-yl)cyclobutyl 4-(dimethylamino)butanoate] |  |  | Total flux in organs, comparison in words over the organs of the table named [7]: lowest expression in each organ
12 | 1.60% | CCCCCCCCCN(CCCCCCCCC)CCN(CCCCCCCCC)CC(=O)N1CCN(C(=O)CN(CCCCCCCCC)CCCCC(=O)OCCCC)CC1 [Compound 55, Butyl 5-((2-(4-(N-(2-(dinonylamino)ethyl)-N-nonylglycyl)piperazin-1-yl)-2-oxoethyl)(nonyl)amino)pentanoate] | 9 | 0.14 | 
13 |  | CCCCC/C=C\C/C=C\CCCCCCCCC1(CCCCCCCC/C=C\C/C=C\CCCCC)CCC(OC(=O)CCCN(C)C)C1 (stereo not drawn) [Compound 21-4, 3,3-Di((9Z,12Z)-octadeca-9,12-dien-1-yl)cyclopentyl 4-(dimethylamino)butanoate] |  |  | Total flux in organs, comparison in words over the organs of the table named [7]: lowest expression in each organ
